Data set [1] concerns Brain. The data set can be described thus: Drug uptake in Papio anubis assessed as retention time in brain at 2.33 mCi, iv by PET imaging. In kind it is ADME, organism-based.
Data set [2] is described as follows: Octanol-water partition coefficient, log D of the compound at pH 7.4. In kind it is physicochemical.
Data set [3] in a line: Fraction unbound in Papio Anubis plasma at 2.33 mCi, iv by PET imaging. In kind it is ADME, organism-based.
Data set [4] relates to Brain. The data set can be described thus: Drug uptake in Papio anubis assessed as maximal uptake in brain at 2.33 mCi, iv after 20 mins of injection by PET imaging. To be noted: in vivo. The format is ADME, organism-based.
Data set [5] deals with Brain. Kind of data set: Drug uptake in Sprague-Dawley rat assessed as retention time in brain at 0.303 mCi, iv by PET imaging. The format is ADME, organism-based.
The subject of data set [6] is Brain. The data set can be described thus: Drug uptake in Sprague-Dawley rat in regions outside brain at 0.303 mCi, iv by PET imaging. The format is ADME, organism-based. To be noted: in vivo.
The target of data set [7] is T1, 5-hydroxytryptamine receptor 2C (Homo sapiens, UniProt P28335).
T1 sequence (P28335 whole entry): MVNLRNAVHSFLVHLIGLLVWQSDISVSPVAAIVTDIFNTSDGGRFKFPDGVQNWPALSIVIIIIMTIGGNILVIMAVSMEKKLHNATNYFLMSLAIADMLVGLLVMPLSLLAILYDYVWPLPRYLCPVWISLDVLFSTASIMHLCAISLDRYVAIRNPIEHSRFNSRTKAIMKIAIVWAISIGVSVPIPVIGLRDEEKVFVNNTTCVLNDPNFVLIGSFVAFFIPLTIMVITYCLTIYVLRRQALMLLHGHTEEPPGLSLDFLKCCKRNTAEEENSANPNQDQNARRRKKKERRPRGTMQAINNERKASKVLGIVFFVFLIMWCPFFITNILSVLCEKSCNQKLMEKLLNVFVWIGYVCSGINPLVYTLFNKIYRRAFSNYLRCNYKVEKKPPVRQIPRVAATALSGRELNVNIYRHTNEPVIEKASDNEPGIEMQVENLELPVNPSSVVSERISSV
Kind of data set: Displacement of [125I]DOI from human 5-HT2C receptor.

Data set [8] relates to Brain. The data set can be described thus: Drug uptake in Sprague-Dawley rat assessed as retention time in brain at 0.99 mCi, iv by PET imaging. The format is ADME, organism-based.

Each structure is given as a SMILES string.

Usually logD stands for lipophilicity at a set pH, counting ionised and neutral species. In general, fraction unbound refers to free concentration divided by total concentration. In general, Ki refers to a dissociation constant, usually derived from enzyme kinetics or from competition with a known ligand. Read a low Ki as tighter binding.

On to `c1cc2c3c(c1)[C@H]1CCC[C@H]1N3CCN[11CH2]2`, for which the figures for the Retention_time in data set [1] and in data set [5] were 80 min and 60 min, respectively. Further, the logD in data set [2] amounted to 1.53. The same compound had a fraction unbound in data set [3] of 0.265. Also, the Drug uptake result in data set [4] and in data set [6] was “Active” throughout.

In data set [7], `c1cc2c3c(c1)[C@H]1CCC[C@H]1CN3CCNC2` [VABICASERIN] had a Ki of 3 nM.

On to `c1cc2c3c(c1)[C@H]1CCC[C@H]1CN3CCN[11CH2]2`, for which the Retention_time in data set [8] was 60 min.

Values taken from ChEMBL document CHEMBL3124743, “Imaging evaluation of 5HT2C agonists, [(11)C]WAY-163909 and [(11)C]vabicaserin, formed by Pictet-Spengler cyclization” (J Med Chem, 2014).
